From patent publication US20030170704A1, “Substance capable of controlling the inclusion of exon 10 of the tau gene, and its therapeutic use against tauopathies” (Max-Planck-Gesellschaft Zur Foerd Der Wissen. E.V., priority 1999, published 2003)

Tests used:
[1] = system: clk2 phosphorylation / exon 10 inclusion of the tau gene; assay: Changing clk2 phosphorylation levels by kinase/phosphatase inhibitors; type: cell-based
[2] = system: tau exon 10 inclusion (SV10 minigene); assay: RT-PCR of tau exon 10 minigene SV10 1:1 co-transfected with splicing regulator cDNA plasmids in COS cells; type: cell-based, human; conditions: 1:1 co-transfection, FIG. 4
Procedure: Plasmid DNA was purified by cesium chloride banding (Sambrook et al., 1989). The plasmids obtained in Examples 1 and 2 were introduced into cells by the lipofection method (LT1, Panvera).
Plates (100 mm) that had reached ˜30% confluence were transfected with 10 μg of construct DNA or 5 μg of each plasmid for co-transfections. The medium was changed 16 h after transfection, without glycerol shock.
Total RNA was isolated 48 h post-transfection by the TRIzol method (Life Technologies). […]
The RT-PCR experiments were done twice with the polyA^+ RNAs and with total RNAs from three independent transfections, to ensure reproducibility. […] In FIGS. 1-4, the percent of the 10^+ isoform was calculated by scanning the bands from three independent transfections and measuring the areas under the curves (by the IPLab Gel program from Scanalytics).
RT-PCR was performed in a manner as described in Example 4 (using primer pair: INS1/INS3), except that-mammalian cells were analyzed which had been 1:1 co-transfected with tau exon 10 containing minigene constructs (denoted SV 10) and with plasmids containing cDNA of various plicing regulators. […]

Compound | controlled change of exon 10 inclusion of the tau gene via clk2 phosphorylation levels [1] | effect on tau exon 10 inclusion (10+/10- isoform ratio by RT-PCR) [2]
OC[C@H]1O[C@@H](n2cnc3cc(Cl)c(Cl)cc32)[C@H](O)[C@@H]1O [5,6-dichloro-1-b-D-ribofuranosylbenzimidazole] | changing the clk2 phosphorylation levels | 
C=C1[C@@H](O)[C@@H]2O[C@]3(CC[C@H](/C=C/[C@@H](C)[C@@H]4CC(C)=C[C@@]5(O[C@H](C[C@@](C)(O)C(=O)O)CC[C@H]5O)O4)O3)CC[C@H]2O[C@@H]1[C@@H](O)C[C@H](C)[C@H]1O[C@@]2(CCCCO2)CC[C@H]1C [okadaic acid] | changing the clk2 phosphorylation levels | 
ASF/SF2: serine/arginine-rich (SR) protein splicing regulator, expressed from cDNA under the CMV promoter |  | inhibited
